Reference: paper PMC10817170, “Effect of an NHE3 inhibitor in combination with an NPT2b inhibitor on gastrointestinal phosphate absorption in Rodent models” (PLOS ONE, 2024)
“And” between values parts separate entries of the source, which are not always exact repeats. Equal values may be shown once.

Assays:
[1] = system: acute phosphate uptake into plasma; experiment: Acute phosphate uptake in rats, LY3304000 with fixed 1.2 mg/kg LY3358966; type: in vivo; settings: 1.2 mg/kg LY3358966 alone
Experimental: NHE3 inhibitor LY3304000 and NPT2b inhibitor LY3358966 SDD were used in combination to assess their effect on phosphate absorption in rats. To make the LY3358966 dosing solution, an appropriate amount of LY3358966 SDD was weighed for a 1.2 mg/kg API dosing solution with 10 mL/kg dosing volume and dissolved in water. To make the LY3304000 dosing solution, an appropriate amount of LY3304000 was weighed for a 10 mg/kg dose with 10 mL/kg dosing volume and dissolved in 1% HEC vehicle. The subsequent dosing solutions for 3, 1, 0.3, 0.1, 0.03, 0.01, 0.003, and 0.001 mg/kg LY3304000 were prepared by serial dilutions with 1% HEC. Following 12-hour fasting, male SD rats were orally dosed at 10 mL/kg with 1% HEC vehicle, 1.2 mg/kg LY3358966 or increasing doses of LY3304000 with a fixed, 1.2 mg/kg dose of LY3358966. In the vehicle group, the animals were dosed first with 1% HEC immediately followed by water. In the LY3358966 alone group, the animals were first dosed with 1% HEC immediately followed by LY3358966. In the combination groups, the animals were dosed first with LY3304000 immediately followed by LY3358966. Fifteen minutes later, 2 mL Radiolabeled Phosphate Dosing Solution was orally dosed. Fifteen minutes later, blood was collected by cardiac stick, and plasma was prepared. Radioactivity (dpm) in 50-μL plasma was measured by scintillation counting. To measure the total radioactivity dosed to each rat, the radioactivity in two 10-μL samples of the Radiolabeled Phosphate Dosing Solutions was measured by scintillation counting. The mole amount of phosphate uptake was calculated as described above to determine acute phosphate uptake.

[2] = system: intestinal phosphate absorption; experiment: Phosphate absorption in rats: 33P in plasma (15 min) and recovered in gastrointestinal tract (4 h), single agents and combination; type: in vivo; settings: 0.4 mg/kg LY3304000, 10 mg/kg LY3358966 or both
Experimental: We also evaluated the effect of LY3304000 and LY3358966 in combination on phosphate absorption in rats by measuring radioactive phosphate recovered in either plasma or the gastrointestinal (GI) tract. In this combination study, two vehicles were used. One is 1% HEC vehicle for making LY3304000 dosing solution, another is 0.46% PVP-VA vehicle contained in LY3358966 SDD. To make the LY3358966 dosing solution, an appropriate amount of LY3358966-SDD was weighed for a 10 mg/kg API dosing solution with 5 mL/kg dosing volume and dissolved in water. To make the LY3304000 dosing solution, an appropriate amount of LY3304000 was weighed for a 0.4 mg/kg dosing solution with 5 mL/kg dosing volume and dissolved in 1% HEC. The Radiolabeled Phosphate Dosing Solutions was made as described above. Following 4-hour fasting with access to water, male SD rats were orally dosed at 10 mL/kg with either two vehicles, an LY3358966 dosing solution and 1% HEC vehicle, an LY3304000 dosing solution and 0.46% PVP-VA vehicle, or an LY3304000 and LY3358966 dosing solutions, combined 1:1 by volume. Fifteen minutes later, Radiolabeled Phosphate Dosing Solution was orally dosed in a 2 mL volume. Fifteen minutes after the radiolabeled phosphate dose, blood was collected by retro orbital bleeding, and plasma was prepared. Radioactivity (dpm) in 20-μL plasma was measured by scintillation counting. The mole amount of phosphate uptake in the plasma was calculated as described above. Four hours post radioactive phosphate dose, the animals were sacrificed by asphyxiation with CO2 followed by cervical dislocation and then the stomach, small intestine, large intestine, and feces were collected and weighed. The tissues and feces were digested in 20 mL or 10 mL of 1 N NaOH, respectively, overnight at 37°C. A 100 μL sample of the homogenates were dispensed into scintillation vials and mixed with 10 mL of Optiphase Supermax scintillation fluid (PerkinElmer), and radioactivity (dpm) was measured by scintillation counting. Very little radioactivity was detected in the feces at 4 hours post radioactive phosphate dose. The percentage of radiolabeled phosphate recovered in the gastrointestinal tissue was defined as radioactivity (dpm) recovered in each fraction compared to the amount of radioactivity (dpm) administered. The mole amount of phosphate uptake into plasma in vehicle and LY3358966 and LY3304000 alone groups were compared to the LY3358966 and LY3304000 combination group using One-way ANOVA with Dunnett’s multiple comparisons. Percent recovery of ^33P phosphate in the rat gastrointestinal tract was analyzed by two-way analysis of variance (ANOVA) in JMP 12.1 to test for additivity of the effects of LY3304000 and LY3358966 on inhibiting phosphate absorption.

[3] = system: acute phosphate uptake into plasma; set-up: method as in PMID 35194979; settings: mice; cited from earlier work
[4] = system: acute phosphate uptake into plasma; set-up: method as in PMID 35194979; settings: rats; cited from earlier work
[5] = system: acute phosphate uptake into plasma; set-up: method as in PMID 34978760; settings: cited from earlier work
[6] = system: phosphate absorption; set-up: method as in PMID 30158152; settings: cited from earlier work

SMILES	phosphate uptake, % of the vehicle control [1] [%]	phosphate uptake into plasma ([1]; vehicle 710 nmoles) [nmol]	phosphate uptake into plasma ([2]; 15 min post 33P phosphate, vehicle 166, mean ± SEM, n=8) [nmol]	inhibition of phosphate uptake into plasma ([2]; 15 min post 33P phosphate, versus vehicle) [%]	percentage of radiolabeled phosphate recovered, Feces ([2]; 4 h) [%]	percentage of radiolabeled phosphate recovered, Large Intestine ([2]; 4 h)	percentage of radiolabeled phosphate recovered, Small Intestine ([2]; 4 h)	percentage of radiolabeled phosphate recovered, Stomach ([2]; 4 h)	percentage of 33P recovered in GI tract, total ([2]; 4 h post 33P phosphate, stomach, small intestine, large intestine and feces, vehicle 25%)	decrease of acute uptake of radiolabeled phosphate into plasma [3]	inhibition of acute phosphate uptake [4]	effect on plasma 33P-phosphate in NHE3 knockout mice ([5]; 60 minutes after dosing 33P-phosphate)	33P-phosphate levels in plasma, lower than vehicle ([5]; mice, 5 minutes post phosphate dose)	33P-phosphate levels in plasma, elevated versus vehicle ([5]; mice, 60 min post phosphate dose)	effect on phosphate absorption [6]
CC1(C)CN(C(=O)NCCCCO)CCN1Cc1cccc(C(=O)Nc2sc3c(c2C(=O)Nc2cc(F)c(CCc4ccc(C(=O)O)cc4)c(F)c2)CCCC3)c1 [LY3358966]	71	504	108	35	<0.1	18.43 +/- 2.03%	8.98 +/- 0.48%	4.86 +/- 1.13%	32 ± 1% and 32% and 32.27 +/- 1.38%	over 70%	20–30%	–	–	–	–
CN1Cc2c(Cl)cc(Cl)cc2[C@H](c2cccc(S(=O)(=O)NCCOCCOCCNC(=O)NCCCCNC(=O)NCCOCCOCCNS(=O)(=O)c3cccc([C@@H]4CN(C)Cc5c(Cl)cc(Cl)cc54)c3)c2)C1 [tenapanor]	–	–	–	–	–	–	–	–	–	–	–	no effect	about 67%	about 50%	little effect
